Here are results for 5 molecules from paper PMC12597212, “Biaryl Phosphate‐Based Inhibitors of the Transcription Factor STAT4” (Chemmedchem, 2025).

Assay [1] addresses T1, STAT1 (Homo sapiens, UniProt P42224).
T1 sequence (P42224 1-750): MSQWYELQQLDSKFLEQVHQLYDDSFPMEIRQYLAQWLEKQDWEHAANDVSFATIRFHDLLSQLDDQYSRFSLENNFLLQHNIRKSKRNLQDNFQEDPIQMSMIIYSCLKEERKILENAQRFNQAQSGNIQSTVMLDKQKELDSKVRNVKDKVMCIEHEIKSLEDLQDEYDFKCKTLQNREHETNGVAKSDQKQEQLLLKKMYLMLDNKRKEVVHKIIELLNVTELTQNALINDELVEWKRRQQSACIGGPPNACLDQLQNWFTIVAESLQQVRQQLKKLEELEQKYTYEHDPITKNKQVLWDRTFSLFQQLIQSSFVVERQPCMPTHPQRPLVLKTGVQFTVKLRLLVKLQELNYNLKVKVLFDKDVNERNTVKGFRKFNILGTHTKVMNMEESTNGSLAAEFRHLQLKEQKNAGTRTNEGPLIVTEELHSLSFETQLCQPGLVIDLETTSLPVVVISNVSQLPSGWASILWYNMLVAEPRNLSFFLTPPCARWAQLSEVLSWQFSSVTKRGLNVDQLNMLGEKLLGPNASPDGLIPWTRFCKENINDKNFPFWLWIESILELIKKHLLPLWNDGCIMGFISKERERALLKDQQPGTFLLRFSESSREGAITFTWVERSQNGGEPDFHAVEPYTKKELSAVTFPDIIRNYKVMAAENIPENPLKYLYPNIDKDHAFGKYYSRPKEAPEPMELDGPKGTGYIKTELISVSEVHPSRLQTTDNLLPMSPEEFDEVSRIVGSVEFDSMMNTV
The following applies: FP assay; data taken from the literature, ref [1] of the Supporting Information; cited from earlier work.

Assay [2] deals with T2, STAT4 SH2 domain (Homo sapiens, UniProt Q14765).
T2 sequence (Q14765 1-748): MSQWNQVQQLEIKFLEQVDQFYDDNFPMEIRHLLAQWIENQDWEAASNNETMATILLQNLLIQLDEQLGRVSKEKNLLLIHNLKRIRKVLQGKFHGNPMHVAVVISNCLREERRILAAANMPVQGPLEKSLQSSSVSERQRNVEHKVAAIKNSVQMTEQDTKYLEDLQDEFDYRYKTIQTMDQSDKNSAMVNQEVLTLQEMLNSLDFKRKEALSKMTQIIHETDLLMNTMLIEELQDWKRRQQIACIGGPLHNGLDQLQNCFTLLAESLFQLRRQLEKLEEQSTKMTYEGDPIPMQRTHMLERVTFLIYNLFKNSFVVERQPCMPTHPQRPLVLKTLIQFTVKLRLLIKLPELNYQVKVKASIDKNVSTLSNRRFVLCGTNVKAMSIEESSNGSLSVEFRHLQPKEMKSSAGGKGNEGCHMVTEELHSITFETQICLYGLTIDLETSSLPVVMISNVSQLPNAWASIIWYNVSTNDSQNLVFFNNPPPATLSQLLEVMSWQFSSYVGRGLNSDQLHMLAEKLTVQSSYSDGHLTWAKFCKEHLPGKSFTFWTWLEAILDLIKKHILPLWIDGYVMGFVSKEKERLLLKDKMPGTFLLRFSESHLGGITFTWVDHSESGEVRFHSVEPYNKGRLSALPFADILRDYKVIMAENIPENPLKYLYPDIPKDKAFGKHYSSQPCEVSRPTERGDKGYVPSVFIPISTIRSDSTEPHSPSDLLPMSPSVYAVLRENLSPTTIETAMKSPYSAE
Briefly: Competitive fluorescence polarization (FP) assay, STAT4. The assay is classed as binding. The following applies: for IC50: 28 nM STAT4, 10 nM tracer peptide; for Ki: Ki calculated from IC50, mean ± SD, n = 3. Here is the method:
(§1) Fluorescence polarization assays
Competitive fluorescence polarization assays were carried as previously described.[1] Proteins […]
fluorescent-labeled peptides were used as tracers: 5-carboxyfluorescein-GpYLPQNID-OH for STAT4; 5-carboxyfluorescein-GpYDKPHVL for STAT1; 5-carboxyfluorescein-GpYLPQTV-NH2 for STAT3; 5-carboxyfluorescein-GpYLVLDKW for STAT5a/b, and 5-carboxyfluorescein- […]
mM Tris (pH 8.0), 50 mM NaCl, 1 mM EDTA, 1 mM DTT, 0.1 % Nonidet P-40 substitute, 2 %
DMSO. Proteins and test compound were incubated for 1 h at room temperature before the […]
(1 picture or pasted object on this page, not shown here) […]
fluorescent-labeled peptide was added. Samples were transferred to 384-well microtiter plates and fluorescence polarization was read after an additional 60 min of incubation time.
Experiments were carried out in triplicate. Percent binding was calculated based on a logarithmic curve fit using OriginPro 8G software. Conversion of IC50 values to Ki-values was achieved using the published equation[2] embedded in the corresponding Excel spread sheet […]
https://websites.umich.edu/~shaomengwanglab/software/calc_ki/ind ex.html.
(§2) Error bars represent standard deviations. […]
(§3) Experiments were carried out in triplicate. […]

Assay [3] has as its target T2, STAT4 SH2 domain. The following applies: FP assay; data taken from the literature, ref [1] of the Supporting Information; cited from earlier work.
The target in a further assay is T3, STAT5a (Homo sapiens, UniProt P42229).
T3 sequence (P42229 1-794): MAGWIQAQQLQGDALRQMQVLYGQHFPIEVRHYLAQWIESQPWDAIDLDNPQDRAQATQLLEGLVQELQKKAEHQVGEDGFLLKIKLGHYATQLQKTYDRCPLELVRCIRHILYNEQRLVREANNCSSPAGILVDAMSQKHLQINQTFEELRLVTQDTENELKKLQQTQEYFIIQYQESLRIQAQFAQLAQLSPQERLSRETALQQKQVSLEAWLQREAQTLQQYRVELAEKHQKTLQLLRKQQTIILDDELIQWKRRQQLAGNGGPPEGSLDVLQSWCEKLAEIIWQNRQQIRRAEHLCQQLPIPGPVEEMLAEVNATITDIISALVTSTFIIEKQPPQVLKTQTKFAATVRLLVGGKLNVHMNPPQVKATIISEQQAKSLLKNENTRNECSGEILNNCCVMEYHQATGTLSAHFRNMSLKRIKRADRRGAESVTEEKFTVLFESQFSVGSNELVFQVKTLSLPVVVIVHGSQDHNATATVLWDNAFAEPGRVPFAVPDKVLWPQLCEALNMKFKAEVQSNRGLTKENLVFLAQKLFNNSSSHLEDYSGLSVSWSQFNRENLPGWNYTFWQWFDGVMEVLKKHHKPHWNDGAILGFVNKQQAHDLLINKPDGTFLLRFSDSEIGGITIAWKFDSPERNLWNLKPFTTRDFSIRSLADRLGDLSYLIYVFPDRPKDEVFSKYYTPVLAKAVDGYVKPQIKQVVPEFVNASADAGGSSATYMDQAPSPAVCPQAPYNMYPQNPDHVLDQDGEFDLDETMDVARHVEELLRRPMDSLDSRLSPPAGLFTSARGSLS
Briefly: Competitive fluorescence polarization (FP) assay, STAT5a. The assay is classed as binding. Here is the method:
as §1
(§4) STAT4; 5-carboxyfluorescein-GpYDKPHVL for STAT1; 5-carboxyfluorescein-GpYLPQTV- […]
(§5) fluorescent-labeled peptide was added. Samples were transferred to 384-well microtiter plates […]
(§6) Experiments were carried out in triplicate. Percent binding was calculated based on a logarithmic curve fit using OriginPro 8G software. Conversion of IC50 values to Ki-values was […]
as §2, §3
(In general: In fluorescence polarisation assays a small probe gives low polarisation when free and higher when bound to something large.)

For assay [4], the target named is T1, STAT1. As to the kind of experiment: Competitive fluorescence polarization (FP) assay, STAT1. Format: binding. Here is the method:
as §1, §4, §5, §6, §2, §3

A further assay has as its target T4, STAT5b (Homo sapiens, UniProt P51692).
T4 sequence (P51692 1-787): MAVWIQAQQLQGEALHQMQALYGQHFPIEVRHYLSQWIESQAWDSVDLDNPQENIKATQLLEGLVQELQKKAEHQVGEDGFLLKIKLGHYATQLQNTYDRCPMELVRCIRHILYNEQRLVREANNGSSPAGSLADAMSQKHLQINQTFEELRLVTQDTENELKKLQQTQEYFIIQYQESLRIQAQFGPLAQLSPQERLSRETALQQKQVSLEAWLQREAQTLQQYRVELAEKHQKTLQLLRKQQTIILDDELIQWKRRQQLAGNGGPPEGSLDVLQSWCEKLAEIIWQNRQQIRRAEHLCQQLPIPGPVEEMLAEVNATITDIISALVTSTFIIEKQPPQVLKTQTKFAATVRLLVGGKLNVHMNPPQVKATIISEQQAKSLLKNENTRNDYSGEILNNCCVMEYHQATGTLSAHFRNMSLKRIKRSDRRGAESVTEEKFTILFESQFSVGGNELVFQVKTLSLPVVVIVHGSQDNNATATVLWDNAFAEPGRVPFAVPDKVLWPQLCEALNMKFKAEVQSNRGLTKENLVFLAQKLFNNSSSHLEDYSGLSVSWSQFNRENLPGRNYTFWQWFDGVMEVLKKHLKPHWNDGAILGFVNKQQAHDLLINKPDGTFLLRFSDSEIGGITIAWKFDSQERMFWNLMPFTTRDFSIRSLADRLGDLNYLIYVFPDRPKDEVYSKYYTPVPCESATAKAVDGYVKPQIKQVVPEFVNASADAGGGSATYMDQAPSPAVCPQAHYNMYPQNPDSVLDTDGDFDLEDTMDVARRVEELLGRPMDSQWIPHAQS
As to the kind of experiment: Competitive fluorescence polarization (FP) assay, STAT5b. The assay is classed as binding. Here is the method: as §1, §4, §5, §6, §2, §3

The next assay deals with T5, STAT6 (Homo sapiens, UniProt P42226).
T5 sequence (P42226 1-847): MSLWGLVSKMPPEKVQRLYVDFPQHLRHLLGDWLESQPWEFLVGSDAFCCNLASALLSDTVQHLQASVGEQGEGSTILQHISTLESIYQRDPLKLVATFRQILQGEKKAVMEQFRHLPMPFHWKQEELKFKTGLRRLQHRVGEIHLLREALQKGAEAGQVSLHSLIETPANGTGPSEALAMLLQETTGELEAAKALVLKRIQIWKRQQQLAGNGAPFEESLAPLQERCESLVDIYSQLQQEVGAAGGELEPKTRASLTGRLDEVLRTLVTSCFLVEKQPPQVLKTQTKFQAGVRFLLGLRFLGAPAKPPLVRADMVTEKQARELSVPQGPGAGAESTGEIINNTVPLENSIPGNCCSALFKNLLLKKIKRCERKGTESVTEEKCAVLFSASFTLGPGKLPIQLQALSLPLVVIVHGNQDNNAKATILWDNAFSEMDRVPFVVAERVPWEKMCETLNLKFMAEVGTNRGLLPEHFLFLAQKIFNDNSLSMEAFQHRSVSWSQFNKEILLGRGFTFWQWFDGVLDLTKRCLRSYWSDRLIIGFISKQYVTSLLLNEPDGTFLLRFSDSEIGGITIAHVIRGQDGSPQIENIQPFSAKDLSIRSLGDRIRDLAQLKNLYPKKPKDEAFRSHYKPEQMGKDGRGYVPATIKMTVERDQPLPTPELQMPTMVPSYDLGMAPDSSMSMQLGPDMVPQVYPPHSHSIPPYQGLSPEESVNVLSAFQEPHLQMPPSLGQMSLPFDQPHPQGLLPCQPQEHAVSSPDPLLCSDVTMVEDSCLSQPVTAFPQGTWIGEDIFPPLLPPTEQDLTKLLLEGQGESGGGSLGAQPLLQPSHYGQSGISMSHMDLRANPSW
As to the kind of experiment: Competitive fluorescence polarization (FP) assay, STAT6. Format: binding. Here is the method: as §1, §4, §5, §6, §2, §3

Where [5] appears, read: Ki calculated from IC50, mean ± SD, n = 3.

Read-outs that look alike come from different tables or passages of the source.

As for `O=P(O)(O)Oc1ccc(-c2ccccc2)cc1` [compound 1, p‐biphenyl phosphate], the IC50 on STAT1 [1] was 16.4 µM.

Regarding `O=P(O)(O)Oc1ccc(-c2cccs2)cc1F` [8e], on STAT4 SH2 domain [2], the IC50 is 0.6 µM and the Ki is 0.3 ± 0.003 µM.

In the case of `O=P(O)(O)Oc1ccc(-c2ccccc2)cc1F` [compound 13], the IC50 is 12.8 µM at STAT1 [1] and 1.21 µM on STAT4 SH2 domain [3].

For `O=P(O)(O)Oc1ccc(-c2ccsc2)cc1F` [8d], on STAT4 SH2 domain [2], the IC50 is 0.52 µM and the Ki was 0.26 ± 0.02 µM.

With `O=P(O)(O)Oc1ccc(-c2cccc3ccccc23)cc1` [compound 10], the IC50 stood at 8.1 µM at STAT5a (125-177 nM STAT5a, 10 nM tracer peptide); 38 µM at STAT1 [4] (80-92 nM STAT1, 10 nM tracer peptide); 89 µM on STAT5b (59-85 nM STAT5b, 10 nM tracer peptide); 19.1 µM at STAT6 (106 nM STAT6, 10 nM tracer peptide). Also, the Ki at STAT5a (setting [5]) is 4 ± 0.3 µM; at STAT1 [4] (setting [5]), 17 ± 1 µM; at STAT5b (setting [5]), 43 ± 4 µM; at STAT6 (setting [5]), 9.4 ± 1.9 µM.

The IC50 is the midpoint of a concentration-inhibition curve. In general, Ki refers to a measure of affinity in units of concentration, obtained from inhibition or displacement.
